ChEMBL document CHEMBL5120873, “Discovery of novel benzimidazole derivatives as potent p300 bromodomain inhibitors with anti-proliferative activity in multiple cancer cells” (Bioorg Med Chem, 2022)
One block for each compound: values may come before it. The source made the active and inactive calls. The rule behind the calls is not given here.

Columns and labels:
[1] = target: T1, Histone acetyltransferase p300 (Homo sapiens, UniProt Q09472); test: Inhibition of EP300 bromodomain (unknown origin) incubated for 20 mins by AlphaLISA method
T1 sequence (Q09472 whole entry): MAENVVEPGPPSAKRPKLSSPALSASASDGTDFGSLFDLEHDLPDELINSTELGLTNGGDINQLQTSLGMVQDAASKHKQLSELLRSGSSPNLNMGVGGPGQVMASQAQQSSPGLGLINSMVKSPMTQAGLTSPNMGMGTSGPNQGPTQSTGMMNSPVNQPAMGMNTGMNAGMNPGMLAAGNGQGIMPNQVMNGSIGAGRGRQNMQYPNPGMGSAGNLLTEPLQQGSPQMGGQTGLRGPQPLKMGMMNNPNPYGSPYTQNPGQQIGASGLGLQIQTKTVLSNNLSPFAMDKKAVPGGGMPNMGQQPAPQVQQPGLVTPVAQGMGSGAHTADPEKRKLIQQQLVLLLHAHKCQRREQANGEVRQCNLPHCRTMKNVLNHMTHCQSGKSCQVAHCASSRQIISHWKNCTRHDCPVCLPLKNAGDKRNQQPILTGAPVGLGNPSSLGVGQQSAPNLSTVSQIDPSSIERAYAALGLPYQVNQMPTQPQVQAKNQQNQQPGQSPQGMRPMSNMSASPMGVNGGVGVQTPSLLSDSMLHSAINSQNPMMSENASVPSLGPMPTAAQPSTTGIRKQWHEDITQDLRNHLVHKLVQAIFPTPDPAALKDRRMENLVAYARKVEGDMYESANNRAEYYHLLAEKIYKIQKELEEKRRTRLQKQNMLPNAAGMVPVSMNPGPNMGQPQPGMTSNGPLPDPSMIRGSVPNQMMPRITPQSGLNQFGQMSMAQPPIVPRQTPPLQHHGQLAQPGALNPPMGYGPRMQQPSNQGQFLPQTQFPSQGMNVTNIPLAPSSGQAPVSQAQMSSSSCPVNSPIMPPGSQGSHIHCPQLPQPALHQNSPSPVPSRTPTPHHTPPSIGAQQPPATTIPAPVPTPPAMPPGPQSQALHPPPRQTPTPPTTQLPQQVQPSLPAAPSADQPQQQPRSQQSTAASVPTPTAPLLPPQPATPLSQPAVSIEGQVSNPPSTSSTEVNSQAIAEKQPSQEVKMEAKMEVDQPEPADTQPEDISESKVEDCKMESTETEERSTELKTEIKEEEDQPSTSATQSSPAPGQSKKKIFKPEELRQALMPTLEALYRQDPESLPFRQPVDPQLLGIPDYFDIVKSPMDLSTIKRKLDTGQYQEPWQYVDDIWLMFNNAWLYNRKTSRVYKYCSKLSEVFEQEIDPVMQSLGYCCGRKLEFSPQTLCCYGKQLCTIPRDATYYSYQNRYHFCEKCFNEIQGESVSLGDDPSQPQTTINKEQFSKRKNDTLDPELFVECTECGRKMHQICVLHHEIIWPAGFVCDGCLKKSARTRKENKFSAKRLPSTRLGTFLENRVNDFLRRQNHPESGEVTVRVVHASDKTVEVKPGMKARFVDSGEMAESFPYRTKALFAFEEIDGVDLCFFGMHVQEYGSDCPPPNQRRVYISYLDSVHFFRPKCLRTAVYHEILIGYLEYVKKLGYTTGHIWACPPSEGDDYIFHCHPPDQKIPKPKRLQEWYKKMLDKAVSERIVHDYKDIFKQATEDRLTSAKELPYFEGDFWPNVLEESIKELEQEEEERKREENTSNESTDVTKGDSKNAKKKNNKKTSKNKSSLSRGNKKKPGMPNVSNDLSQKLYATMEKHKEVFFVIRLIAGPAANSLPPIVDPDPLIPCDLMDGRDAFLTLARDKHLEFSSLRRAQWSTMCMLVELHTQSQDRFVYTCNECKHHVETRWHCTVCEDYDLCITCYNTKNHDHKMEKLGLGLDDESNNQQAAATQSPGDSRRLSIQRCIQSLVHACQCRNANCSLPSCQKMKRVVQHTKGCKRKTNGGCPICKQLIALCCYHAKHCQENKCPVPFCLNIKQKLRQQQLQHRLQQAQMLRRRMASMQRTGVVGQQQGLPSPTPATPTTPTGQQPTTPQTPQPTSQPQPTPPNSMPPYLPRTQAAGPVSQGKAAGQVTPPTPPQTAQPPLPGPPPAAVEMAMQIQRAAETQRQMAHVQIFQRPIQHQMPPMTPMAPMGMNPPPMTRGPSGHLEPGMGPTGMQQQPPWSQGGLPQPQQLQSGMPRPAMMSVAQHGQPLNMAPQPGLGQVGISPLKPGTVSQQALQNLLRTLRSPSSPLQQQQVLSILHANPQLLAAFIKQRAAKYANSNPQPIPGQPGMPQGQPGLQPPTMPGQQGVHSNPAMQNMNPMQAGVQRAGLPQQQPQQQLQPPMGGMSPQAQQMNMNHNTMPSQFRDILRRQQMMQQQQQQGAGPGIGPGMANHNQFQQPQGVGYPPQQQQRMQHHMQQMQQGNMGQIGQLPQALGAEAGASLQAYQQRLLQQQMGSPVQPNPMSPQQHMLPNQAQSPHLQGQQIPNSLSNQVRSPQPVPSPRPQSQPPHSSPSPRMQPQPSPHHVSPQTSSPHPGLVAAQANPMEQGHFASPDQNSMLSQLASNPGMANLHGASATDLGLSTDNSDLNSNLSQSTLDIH

[2] = target: T1, Histone acetyltransferase p300; test: Binding affinity to recombinant EP300 bromodomain (unknown origin) assessed as change in melting temperature by differential scanning fluorimetry method
OPM-2 [3] = test: Antiproliferative activity against human OPM-2 cells incubated for 5 days by CCK-8 method; format: functional, cell-based; details: OPM-2, 120 h
CWR22R = test: Antiproliferative activity against human 22Rv1 cells incubated for 5 days by CCK-8 method; format: functional, cell-based; details: 22Rv1, 120 h
MCF7 = test: Antiproliferative activity against human MCF7 cells incubated for 5 days by CCK-8 method; format: functional, cell-based; details: MCF7, 120 h
SCC-9 = test: Antiproliferative activity against human SCC-9 cells incubated for 5 days by CCK-8 method; format: functional, cell-based; details: SCC-9, 120 h
[4] = target: T2, CREB-binding protein/Histone acetyltransferase p300 (Homo sapiens) (UniProt Q09472+Q92793); test: Inhibition of EP300/CBP bromodomain in human OPM-2 cells assessed as suppression of c-myc expression incubated for 3 days by Western blot analysis; format: cell-based; details: dose 0.8-5 µM, time 3.0 day, DDE = dose-dependent effect
T2 sequence (Q09472 whole entry, looked up): as the sequence (Q09472 whole entry) above
T2 sequence (Q92793 whole entry, looked up): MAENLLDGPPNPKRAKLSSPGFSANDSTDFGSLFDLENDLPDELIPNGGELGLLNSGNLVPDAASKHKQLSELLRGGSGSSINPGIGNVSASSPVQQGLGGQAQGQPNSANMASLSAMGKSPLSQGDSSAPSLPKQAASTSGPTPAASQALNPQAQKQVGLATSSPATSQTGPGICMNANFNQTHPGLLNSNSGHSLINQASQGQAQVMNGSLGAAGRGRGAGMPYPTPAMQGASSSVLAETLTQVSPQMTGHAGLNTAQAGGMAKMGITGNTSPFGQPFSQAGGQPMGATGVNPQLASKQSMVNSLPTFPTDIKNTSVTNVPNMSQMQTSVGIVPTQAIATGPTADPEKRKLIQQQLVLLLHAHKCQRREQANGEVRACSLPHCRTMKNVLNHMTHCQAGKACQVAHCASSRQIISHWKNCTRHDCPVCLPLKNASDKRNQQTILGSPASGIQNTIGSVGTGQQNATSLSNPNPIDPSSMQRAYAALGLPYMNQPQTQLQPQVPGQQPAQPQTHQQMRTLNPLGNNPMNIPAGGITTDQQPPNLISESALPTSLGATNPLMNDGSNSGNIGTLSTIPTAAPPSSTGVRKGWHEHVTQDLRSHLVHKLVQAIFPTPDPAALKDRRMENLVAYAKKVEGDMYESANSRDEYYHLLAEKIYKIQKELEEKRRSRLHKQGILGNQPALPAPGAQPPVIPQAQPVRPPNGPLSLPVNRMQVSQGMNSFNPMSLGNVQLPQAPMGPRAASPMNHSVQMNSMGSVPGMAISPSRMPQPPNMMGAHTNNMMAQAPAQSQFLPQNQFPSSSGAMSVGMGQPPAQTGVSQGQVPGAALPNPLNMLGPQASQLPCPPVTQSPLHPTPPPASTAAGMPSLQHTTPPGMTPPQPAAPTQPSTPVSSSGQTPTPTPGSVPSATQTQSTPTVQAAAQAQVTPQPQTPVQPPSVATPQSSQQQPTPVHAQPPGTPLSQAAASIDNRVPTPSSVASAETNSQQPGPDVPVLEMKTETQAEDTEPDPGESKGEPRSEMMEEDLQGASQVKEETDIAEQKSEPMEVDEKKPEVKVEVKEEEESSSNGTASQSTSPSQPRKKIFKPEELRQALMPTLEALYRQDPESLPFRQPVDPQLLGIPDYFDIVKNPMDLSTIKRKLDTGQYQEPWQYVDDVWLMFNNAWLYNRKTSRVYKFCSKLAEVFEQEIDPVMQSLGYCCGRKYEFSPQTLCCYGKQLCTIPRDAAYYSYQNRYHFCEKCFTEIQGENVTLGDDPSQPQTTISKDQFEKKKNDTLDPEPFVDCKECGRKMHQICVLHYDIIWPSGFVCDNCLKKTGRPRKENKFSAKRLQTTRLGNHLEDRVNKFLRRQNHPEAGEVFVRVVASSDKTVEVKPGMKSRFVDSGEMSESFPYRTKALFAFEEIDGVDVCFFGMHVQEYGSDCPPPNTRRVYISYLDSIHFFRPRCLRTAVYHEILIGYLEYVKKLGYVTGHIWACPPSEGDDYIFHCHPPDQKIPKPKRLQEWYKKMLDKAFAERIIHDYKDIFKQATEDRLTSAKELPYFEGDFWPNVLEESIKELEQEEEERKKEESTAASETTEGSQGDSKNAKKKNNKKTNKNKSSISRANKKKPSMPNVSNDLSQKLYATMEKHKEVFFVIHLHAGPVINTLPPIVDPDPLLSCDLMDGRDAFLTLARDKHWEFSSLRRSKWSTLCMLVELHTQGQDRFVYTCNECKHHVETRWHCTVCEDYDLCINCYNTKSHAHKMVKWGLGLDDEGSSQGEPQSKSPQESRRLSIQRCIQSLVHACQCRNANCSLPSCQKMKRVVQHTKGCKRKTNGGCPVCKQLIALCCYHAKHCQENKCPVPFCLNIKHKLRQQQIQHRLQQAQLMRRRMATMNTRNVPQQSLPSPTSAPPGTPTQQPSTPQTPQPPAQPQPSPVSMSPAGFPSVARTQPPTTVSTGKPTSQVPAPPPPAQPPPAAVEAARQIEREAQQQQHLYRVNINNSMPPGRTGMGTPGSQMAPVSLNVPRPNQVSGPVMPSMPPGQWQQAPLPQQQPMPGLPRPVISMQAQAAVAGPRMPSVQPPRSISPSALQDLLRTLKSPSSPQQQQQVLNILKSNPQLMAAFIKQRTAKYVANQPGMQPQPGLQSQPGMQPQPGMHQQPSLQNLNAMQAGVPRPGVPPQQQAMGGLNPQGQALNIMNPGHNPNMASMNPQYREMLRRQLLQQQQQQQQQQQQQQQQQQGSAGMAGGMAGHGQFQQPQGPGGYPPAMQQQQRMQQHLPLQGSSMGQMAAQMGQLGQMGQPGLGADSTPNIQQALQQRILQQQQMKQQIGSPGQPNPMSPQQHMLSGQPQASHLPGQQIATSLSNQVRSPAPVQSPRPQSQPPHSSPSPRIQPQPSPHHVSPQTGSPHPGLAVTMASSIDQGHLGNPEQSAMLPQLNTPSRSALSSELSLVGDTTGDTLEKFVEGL

[5] = target: T2, CREB-binding protein/Histone acetyltransferase p300 (Homo sapiens); test: Inhibition of EP300/CBP bromodomain in human OPM-2 cells assessed as suppression of c-myc expression at <= 1 uM incubated for 3 days by Western blot analysis; format: cell-based; details: time 3.0 day
[6] = target: T2, CREB-binding protein/Histone acetyltransferase p300 (Homo sapiens); test: Inhibition of EP300/CBP bromodomain in human 22Rv1 cells assessed as suppression of c-myc expression at 0.8 to 5 uM incubated for 3 days by Western blot analysis; format: cell-based; details: dose 0.8-5 µM, time 3.0 day
[7] = target: T2, CREB-binding protein/Histone acetyltransferase p300 (Homo sapiens); test: Inhibition of EP300/CBP bromodomain in human SCC-9 cells assessed as suppression of c-myc expression at 0.8 to 5 uM incubated for 3 days by Western blot analysis; format: cell-based; details: dose 0.8-5 µM, time 3.0 day
OPM-2 [8] = test: Induction of cell cycle arrest in human OPM-2 cells assessed as accumulation of cells at G1/G0 phase at 5 uM incubated for 48 hrs by PI staining based flow cytometry analysis (reference value: 34.25 %); format: functional
OPM-2 [9] = test: Induction of apoptosis in human OPM-2 cells assessed as apoptotic cells at 3 uM incubated for 72 hrs by annexin V-FITC/PI staining based flow cytometry analysis; format: functional

SMILES: COc1ccc(CCc2nc3cc(-c4c(C)noc4C)ccc3n2[C@H]2C[C@H](O)C2)cc1Cl
IC50 [1]: 0.155 µM

SMILES: COc1ccc(CCc2nc3cc(-c4c(C)noc4C)ccc3n2C2CCN(C(C)=O)CC2)cc1Cl
IC50 [1]: 0.094 µM

SMILES: COc1ccc(CCc2nc3cc(-c4c(C)noc4C)ccc3n2[C@H]2CC[C@H](OC)CC2)cc1Cl
IC50 [1]: 0.097 µM | IC50 (OPM-2 [3]): 2.29 µM | IC50 (CWR22R): > 10 µM | IC50 (MCF7): 5.65 µM | IC50 (SCC-9): 2.55 µM | Activity [4]: Dde

SMILES: COc1ccc2c(Cc3nc4cc(-c5c(C)noc5C)ccc4n3[C@H]3CC[C@H](O)CC3)cc(=O)oc2c1
IC50 [1]: 0.048 µM

SMILES: Cc1noc(C)c1-c1ccc2c(c1)nc(C1CC1c1ccccc1)n2[C@H]1CC[C@H](O)CC1 (stereo partly drawn)
IC50 [1]: 0.263 µM

SMILES: COc1ccc(CCc2nc3cc(-c4c(C)noc4C)ccc3n2C2CC(C)(C)OC(C)(C)C2)cc1Cl
IC50 [1]: 0.112 µM

SMILES: COc1ccc(CCc2nc3cc(-c4c(C)noc4C)ccc3n2[C@H]2CC[C@H](C(F)(F)F)CC2)cc1Cl
IC50 [1]: 0.894 µM

SMILES: COc1ccc(N2C(=O)C[C@@H]2c2nc3cc(-c4c(C)noc4C)ccc3n2[C@H]2CC[C@H](OC)CC2)cc1Cl
IC50 [1]: 0.081 µM | IC50 (OPM-2 [3]): 1.54 µM | IC50 (CWR22R): 3.68 µM | IC50 (MCF7): 1.99 µM | IC50 (SCC-9): 3.17 µM | Activity [4]: Dde

SMILES: COc1ccc(CCc2nc3cc(-c4c(C)noc4C)ccc3n2C2CCC(F)(F)CC2)cc1Cl
IC50 [1]: 0.083 µM

SMILES: COc1ccc(CCc2nc3cc(-c4c(C)noc4C)ccc3n2C[C@H](C)N2CCOCC2)cc1Cl
ΔTm [2]: 4.5 °C | IC50 (OPM-2 [3]): 2.64 µM | IC50 (CWR22R): > 10 µM | IC50 (MCF7): 2.39 µM | IC50 (SCC-9): 6.42 µM

SMILES: COc1ccc(N2C(=O)C[C@H]2c2nc3cc(-c4c(C)noc4C)ccc3n2[C@H]2CC[C@H](OC)CC2)cc1Cl
IC50 [1]: 0.049 µM | IC50 (OPM-2 [3]): 1.09 µM | IC50 (CWR22R): 3.74 µM | IC50 (MCF7): 0.96 µM | IC50 (SCC-9): 1.85 µM | Activity [5]: Active | Activity [6]: Active | Activity [7]: Active | Activity (OPM-2 [8]): 90% | Activity (OPM-2 [9]): 38.27%

SMILES: COc1ccc(CCc2nc3cc(-c4c(C)noc4C)ccc3n2[C@H]2CC[C@H](O)CC2)cc1Cl
IC50 [1]: 0.048 µM | IC50 (OPM-2 [3]): 1.39 µM | IC50 (CWR22R): 6.83 µM | IC50 (MCF7): 2.82 µM | IC50 (SCC-9): 3.68 µM | Activity [5]: Active | Activity (OPM-2 [8]): 90% | Activity (OPM-2 [9]): 28.49%

SMILES: COc1ccc(CCc2nc3cc(-c4c(C)noc4C)ccc3n2C2CCN(S(C)(=O)=O)CC2)cc1Cl
IC50 [1]: 0.148 µM

The next lines start with the values.

ΔTm [2]: 2.21 °C
SMILES: COc1ccc(CCc2nc3cc(C4(C)COC4)ccc3n2C[C@H](C)N2CCOCC2)cc1Cl

ΔTm [2]: 1.07 °C
SMILES: COc1ccc(CCc2nc3cc(S(C)(=O)=O)ccc3n2C[C@H](C)N2CCOCC2)cc1Cl

ΔTm [2]: 3.53 °C
SMILES: CNC(=O)Nc1ccc2c(c1)nc(CCc1ccc(OC)c(Cl)c1)n2C[C@H](C)N1CCOCC1

ΔTm [2]: 2.51 °C
SMILES: COc1ccc(CCc2nc3cc(NS(C)(=O)=O)ccc3n2C[C@H](C)N2CCOCC2)cc1Cl

ΔTm [2]: 1.44 °C
SMILES: COc1ccc(CCc2nc3cc(CC#N)ccc3n2C[C@H](C)N2CCOCC2)cc1Cl

ΔTm [2]: 4.1 °C
SMILES: COc1ccc(CCc2nc3cc(C(C)=O)ccc3n2C[C@H](C)N2CCOCC2)cc1Cl

ΔTm [2]: 2.1 °C
SMILES: CNC(=O)c1ccc2c(c1)nc(CCc1ccc(OC)c(Cl)c1)n2C[C@H](C)N1CCOCC1

ΔTm [2]: 2.97 °C
SMILES: COc1ccc(CCc2nc3cc(NC(C)=O)ccc3n2C[C@H](C)N2CCOCC2)cc1Cl

ΔTm [2]: 2.95 °C
SMILES: COc1ccc(CCc2nc3cc(-c4cnn(C)c4)ccc3n2C[C@H](C)N2CCOCC2)cc1Cl

ΔTm [2]: 4.34 °C
SMILES: COc1ccc(CCc2nc3cc(-c4cnn(C)n4)ccc3n2C[C@H](C)N2CCOCC2)cc1Cl
